From patent US20040142971A1, “BENZOTHIOPHENE COMPOUNDS HAVING ANTIINFECTIVE ACTIVITY” (GeneSoft, Inc., priority 2001, published 2004)
Converted amounts (≈) assume the structure as drawn. Read-outs that look alike come from different tables or passages of the source.

Assays:
[1] = tested on: S. epidermidis ATCC 700586 (methycillin resistant strain, MRSE); test: MIC, NCCLS broth microdilution; assay type: cell-based, Staphylococcus epidermidis; details: for MIC: Staphylococcus epidermidis, read-out: Minimum Inhibitory Concentration (MIC)
Excerpt: (§1) In vitro biological activity data were collected for a variety of microorganisms, including Bacillus cereus (ATCC 11778), Staphylococcus aureus (ATCC 27660 (a methicillin resistant strain (MRSA), ATCC 33591 and ATCC 43300); ATCC 13709, a methicillin sensitive strain (MSSA)); Streptococcus pneumoniae (ATCC 51422, a penicillin resistant strain (PRSP)), Enterococcus faecium (ATCC 51559, a vancomycin resistant strain (VRE)), and Staphylococcus epidermidis (ATCC 700586, a methycillin resistant strain (MRSE)). Additionally, antifungal activity data were collected for Candida albicans (ATCC 38247). Minimal inhibition concentrations (MIC's) were determined using the National Committee for Clinical Laboratory Standards (NCCLS) broth microdilution assay in microtiter plates, as set forth in: (1) the guidelines of the National Committee for Clinical Laboratory Standards (NCCLS) Document M7-A4 (NCCLS, 1997); (2) the guidelines of the National Committee for Clinical Laboratory Standards (NCCLS) Document M11-A4 (NCCLS, 1997); and (3) the guidelines and reference method of the National Committee for Clinical Laboratory Standards (NCCLS) Document M27-T (NCCLS, 1995). For antifungal essays, the method recommended in Murray, PR., 1995 Manual of Clinical Microbiology (ASM Press, Washington, D.C.), was employed.

[2] = tested on: S. aureus ATCC 43300; test: MIC, NCCLS broth microdilution; assay type: cell-based; details: Staphylococcus aureus, ATCC43300, read-out: Minimum Inhibitory Concentration (MIC)
Excerpt: as §1

[3] = tested on: E. faecium ATCC 51559 (vancomycin resistant strain, VRE); test: MIC, NCCLS broth microdilution; assay type: cell-based, Enterococcus faecium; details: for MIC: Enterococcus faecium, read-out: Minimum Inhibitory Concentration (MIC)
Excerpt: as §1

[4] = tested on: B. Cereus ATCC 11778; test: MIC, NCCLS broth microdilution; assay type: cell-based, Bacillus cereus; details: for MIC: Bacillus cereus
Excerpt: as §1

[5] = tested on: S. pneumoniae ATCC 51422 (penicillin resistant strain, PRSP); test: MIC, NCCLS broth microdilution; assay type: cell-based, Streptococcus pneumoniae; details: for MIC: Streptococcus pneumoniae, read-out: Minimum Inhibitory Concentration (MIC)
Excerpt: as §1

[6] = tested on: S. aureus ATCC 27660 (methicillin resistant strain, MRSA); test: MIC, NCCLS broth microdilution; assay type: cell-based, Staphylococcus aureus; details: for MIC: Staphylococcus aureus, read-out: Minimum Inhibitory Concentration (MIC)
Excerpt: as §1

[7] = tested on: S. aureus ATCC 33591; test: MIC, NCCLS broth microdilution; assay type: cell-based, Staphylococcus aureus; details: for MIC: Staphylococcus aureus
Excerpt: as §1

[8] = tested on: S. aureus ATCC 13709 (methicillin sensitive strain, MSSA); test: MIC, NCCLS broth microdilution; assay type: cell-based, Staphylococcus aureus; details: for MIC: Staphylococcus aureus, read-out: Minimum Inhibitory Concentration (MIC)
Excerpt: as §1

[9] = tested on: Candida albicans (ATCC 38247); test: Antifungal MIC; assay type: cell-based
Excerpt: as §1, with “employed. The results are presented in Table A below, which is keyed as follows: […]” for “employed.”

[10] = tested on: methycillin resistant Staphylococcus aureus ATCC 33591; test: Murine neutropenic thigh model; assay type: in vivo, mice; details: 50 mg/kg intravenously two hours post infection, 6 hr after treatment
Description: A S. aureus ATCC 33591 culture was grown to log phase overnight and diluted in phosphate buffered saline (pH 7.2) to an optical density of about 0.1 at 600 nm, giving an approximate concentration of 10^8 cfu/mL. The suspension was diluted 1:100 in phosphate buffered saline (pH 7.2) for a final concentration of 10^6 cfu/mL.
Outbred female CF1 mice (approx. 20 gram body weight) were rendered neutropenic by treatment with cyclophosphamide (200 mg/kg body weight, intraperitoneal injection) at 2 and 4 days prior to inoculation. Groups of 5 mice were inoculated with 0.05 mL of the bacteria (approx. 10^6 cfu/mL) into the anterior thigh. Each group was treated intravenously two hours post infection with vehicle (phosphate buffered saline) or test compound. The mice were sacrificed at either 6 or 24 hrs after treatment and thighs were collected aseptically. Each thigh was weighed, placed into sterile saline, and homogenized. The tissue homogenates were diluted appropriately for plating on agar plates. Colony counts were recorded (cfu/gram) and compared to control groups.
In vivo efficacy was shown by a decrease in colony count (log cfu/gram of tissue) in the compound-treated animals when compared against the colony count in animals given only the vehicle.

Row | SMILES | Minimum Inhibitory Concentration (MIC) ([1]; G = S. epidermidis ATCC 700586) | Minimum Inhibitory Concentration (MIC) ([3]; B = E. faecium ATCC 51559) | Minimum Inhibitory Concentration (MIC) ([4]; A = B. Cereus ATCC 11778) | Minimum Inhibitory Concentration (MIC) ([5]; H = S. pneumoniae ATCC 51422) | Minimum Inhibitory Concentration (MIC) ([6]; D = S. aureus ATCC 27660) | Minimum Inhibitory Concentration (MIC) ([7]; E = S. aureus ATCC 33591) | Minimum Inhibitory Concentration (MIC) ([8]; C = S. aureus ATCC 13709) | other results
1 | Cn1cc(NC(=O)c2cc(NC(=O)c3cc(NC(=O)c4sc5ccccc5c4Cl)cn3C)cn2C)cc1C(=O)NCCN1CCOCC1 [Ib-1] | – | – | – | – | – | – | – | MIC [1]: < 4 µg/mL; MIC [2]: < 4 µg/mL; MIC [3]: < 4 µg/mL; MIC ([4]; ATCC11778, read-out: Minimum Inhibitory Concentration (MIC)): < 4 µg/mL; MIC [5]: < 4 µg/mL; MIC [6]: < 4 µg/mL; MIC ([7]; ATCC33591, read-out: Minimum Inhibitory Concentration (MIC)): < 4 µg/mL; MIC [8]: < 4 µg/mL
2 | Cn1cc(NC(=O)c2cc(NC(=O)c3cc(NC(=O)c4sc5ccccc5c4Cl)c[nH]3)cn2C)cc1C(=O)NCCN1CCCC1 [Ib-48] | – | – | – | – | – | – | – | MIC ([1]; G = S. epidermidis ATCC 700586): < 4 µg/mL; MIC ([9]; ATCC38247, read-out: MIC): < 4 µg/mL; MIC ([3]; B = E. faecium ATCC 51559): 4 to 12 µg/mL (≈ 6.05 to 18.1 µM); MIC ([4]; ATCC11778, A = B. Cereus ATCC 11778, read-out: Minimum Inhibitory Concentration (MIC)): < 4 µg/mL; MIC ([5]; H = S. pneumoniae ATCC 51422): < 4 µg/mL; MIC ([6]; D = S. aureus ATCC 27660): < 4 µg/mL; MIC ([7]; ATCC33591, E = S. aureus ATCC 33591, read-out: Minimum Inhibitory Concentration (MIC)): < 4 µg/mL; MIC ([8]; C = S. aureus ATCC 13709): < 4 µg/mL; Colony Count (log cfu/gram) Compound [10]: 4.74 log cfu/gram
3 | Cn1cc(NC(=O)c2cc3ccccc3cn2)cc1C(=O)Nc1cc(C(=O)Nc2cc(C(=O)NCCN3CCOCC3)n(CCN3CCOCC3)c2)n(C)c1 [Ib-56] | +++ (+++ = MIC ≦ 4) | +++ (+++ = MIC ≦ 4) | >32 µg/mL | +++ (+++ = MIC ≦ 4) | +++ (+++ = MIC ≦ 4) | +++ (+++ = MIC ≦ 4) | +++ (+++ = MIC ≦ 4) | –
4 | Cn1cc(NC(=O)c2cc(NC(=O)c3cc(NC(=O)c4cc5ccccc5cn4)cn3C)c[nH]2)cc1C(=O)NCCN1CCOCC1 [Ib-67] | +++ (+++ = MIC ≦ 4) | +++ (+++ = MIC ≦ 4) | +++ (+++ = MIC ≦ 4) | +++ (+++ = MIC ≦ 4) | +++ (+++ = MIC ≦ 4) | +++ (+++ = MIC ≦ 4) | +++ (+++ = MIC ≦ 4) | –
5 | Cn1cc(NC(=O)c2cc(NC(=O)c3cc(NC(=O)c4cc5ccccc5cn4)c[nH]3)cn2C)cc1C(=O)NCCN1CCOCC1 [Ib-50] | – | – | +++ (+++ = MIC ≦ 4) | – | +++ (+++ = MIC ≦ 4) | – | +++ (+++ = MIC ≦ 4) | MIC [9]: ++ (++ = MIC between 4 and 12); Colony Count (log cfu/gram) Compound [10]: 7.97 log cfu/gram
6 | Cn1cc(NC(=O)c2cc(NC(=O)c3cc(NC(=O)c4cc5ccccc5cn4)c[nH]3)cn2C)cc1C(=O)NCCN1CCCCC1 [Ib-62] | +++ (+++ = MIC ≦ 4) | +++ (+++ = MIC ≦ 4) | + (+ = MIC from 12 to 32, inclusive) | +++ (+++ = MIC ≦ 4) | +++ (+++ = MIC ≦ 4) | +++ (+++ = MIC ≦ 4) | +++ (+++ = MIC ≦ 4) | –
7 | Cn1cc(NC(=O)c2cc(NC(=O)c3cc(NC(=O)c4cc5ccccc5cn4)c[nH]3)cn2C)cc1C(=O)NCCc1ccccn1 [Ib-70] | +++ (+++ = MIC ≦ 4) | +++ (+++ = MIC ≦ 4) | +++ (+++ = MIC ≦ 4) | +++ (+++ = MIC ≦ 4) | +++ (+++ = MIC ≦ 4) | +++ (+++ = MIC ≦ 4) | +++ (+++ = MIC ≦ 4) | –
8 | Cn1cc(NC(=O)c2sc3cc4c(cc3c2Cl)OCO4)cc1C(=O)NCCN1CCCC1 [Ib-20o] | +++ (+++ = MIC ≦ 4) | +++ (+++ = MIC ≦ 4) | +++ (+++ = MIC ≦ 4) | +++ (+++ = MIC ≦ 4) | +++ (+++ = MIC ≦ 4) | +++ (+++ = MIC ≦ 4) | +++ (+++ = MIC ≦ 4) | –
